Assay results published in patent US20210087565A1, “ANTISENSE ANTIBIOTICS AND BACTERIAL SECRETION BASED DELIVERY SYSTEM TO ELIMINATE DRUG-RESISTANT BACTERIA” (priority 2018, published 2021).
“Also recorded” adds a separate entry of the source. Like-named read-outs stand apart in the source and are kept apart here.

How the values were obtained:
[1] = system: clinical isolates of Enterobacteriaceae; test: Antibiotic resistance screening (MIC against CLSI breakpoints), all strains; format: cell-based; details: CLSI 2016-2017 breakpoints
Protocol: (§1) Phenotypic antibiotic resistance characterization of the clinical isolates was performed to determine “sensitive” (S), “intermediate” (I), and “resistant” (R) phenotypes using the 2016-2017 Clinical & Laboratory Standards Institute (CLSI) sensitive/resistant breakpoint values (Table 4).
(§2) Antibiotic resistance screening: Sensitive/resistant breakpoints were taken from the 2016-2017 Clinical & Laboratory Standards Institute report (Table 4). Liquid cultures of the clinical strains were diluted to a 0.5 McFarland standard and added to the respective antibiotic test condition. The antibiotic minimum inhibitory concentration (MIC) for each clinical isolate was determined as the lowest antibiotic concentration which prevented visible cell growth for 24 h. Strains were: “sensitive” if the MIC was equal to or below the sensitive-breakpoint concentration, “resistant” if the MIC was greater than or equal to the resistant-breakpoint concentration, and “intermediate” if the MIC was in-between.

NDM-1 KPN = test: Antibiotic resistance screening (MIC against CLSI breakpoints); format: cell-based, Klebsiella pneumoniae; details: meropenem, CLSI 2016-2017 breakpoints
Protocol: as §1, §2

[2] = system: SL1344-mCherry in HeLa cells; test: Double infection of HeLa cells, PNA delivery and release by SL1344-Holin; format: cell-based, Salmonella enterica serovar typhimurium
Protocol: FIG. 14. Combining the bacterial Type III secretion system (T3SS) and the holing/endolysin kill switch for PNA delivery and release. (A) Schematic showing the PNA deliver and release approach using the T3SS and Holin systems respectively to treat an intracellular infection of HeLa cells. HeLa cells were seeded 24 hours prior to infection. A 4:1 mixture of SL1344-Holin to SL1344-mCherry cells with (Bottom) and without (Top) 45 minute PNA pretreatment used to infect HeLa cells for 45 minutes. (Bottom) The PNA enters SL1344-Holin during the 45 minute pretreatment and is carried into the HeLa cell during infection. Following infection and gentamicin protection, the PNA is released from the SL1344-Holin during the 18-hours of treatment to target the SL1344-mCherry population. After 18-hours of incubation the HeLa cells are lysed to determine the number of intracellular colony forming units. (B) Normalized intracellular bacterial load represented as the ratio of normalized SL1344-mCherry:
To that end, the present inventors built a “delivery strain” of Salmonella by expressing the holin lysis cassette, encoding a holin-antiholin according to SEQ ID NO. 34, under control of an inducible laciQ promoter (referred to as SL1344-Holin, FIG. 24), and a therapeutic “target strain” of Salmonella by expressing mCherry from a plasmid in SL1344 (referred to as SL1344-mCherry). The present inventors followed the same infection protocol as described above with few modifications and treated cells with a different PNA, α-recA (N′-[…]-AEEA-[…]-C′), to show the generalizability of the assay. […] As with the previous experiment, the present inventors allowed the Salmonella to uptake the PNA during a 45 minute incubation where the treatment condition (referred to as T3SS-PNA) consisted of SL1344-Holin incubated with 10 μM of α-recA in phosphate buffer saline (PBS) and the no treatment was incubated in only PBS. In parallel, equal cell densities of the target strain SL1344-mCherry was incubated with PBS for 45-minutes. SL1344-Holin (with or without PNA) and SL1344-mCherry cells were washed and mixed in a ratio of 4:1 respectively to achieve a final total MOI of approximately 10:1 for infection of HeLa cells. The infection was carried out for 45 minutes followed by the removal of extracellular bacteria using a gentamicin wash (FIG. 5A), and 18 hours of incubation in fresh growth medium containing gentamicin. […] To account for this variation, the present inventors measured the extracellular and intracellular bacterial load before and after infection respectively and reported the normalized ratio of the latter to the former (FIG. 5B-C, FIG. 26). […]

SL1344 = test: Growth inhibition of SL1344 in broth culture; format: cell-based, Salmonella enterica serovar typhimurium; details: 10 μM, 24 hours
Protocol: FIG. 25. α-recA growth inhibition of SL1344. Optical density was measured at 600 nm in 50 μL cultures and normalized optical density is reported at 24 hours as absorbance at 600 nm minus media blank and each biological replicate normalized to the optical density reading at time zero. Overnight cultures of SL1344 were diluted 1:10,000 and treated with 10 μM addition of α-recA for 24 hours. Error bars indicate standard deviation of n=3 biological replicates.

CRE E. coli [3] = test: PNA growth assay (optical density) on clinical isolate; format: cell-based, Escherichia coli; details: for growth inhibition: 10 μM PNA, optical density vs no treatment at 16 hours
Protocol: (§3) Bacterial Cell culture: The clinical isolates were obtained from the lab of Nancy Madinger at the University of Colorado Anschutz campus. Clinical isolates were grown in Cation Adjusted Mueller Hinton broth (CAMHB) (Becton, Dickinson and Company 212322) at 37° C. with 225 rpm shaking or on solid CAMHB with 1.5% agar at 37° C. Clinical isolates were maintained as freezer stocks in 90% CAMHB, 10% glycerol at −80° C. Freezer stocks were streaked out onto solid CAMHB and incubated for 16 h to produce single colonies prior to experiments. For each biological replicate, a single colony was picked from solid media and grown for 16 h in liquid CAMHB prior to experiments. Non-clinical isolates, such as E. coli MG1655 (ATCC700926) and Salmonella entorica serovar typhimurium SL1344, were cultured in liquid 2% lysogeny broth (LB) or on 2% LB with 1.5% agar for solid plates. S. typhimurium cultures were supplemented with 30 μg/mL streptomycin and SL1344 strains containing plasmids pFPV (SL1344-mCherry) or pRG1 modified with a lacIq promoter (SL1344-Holin) were supplemented with 100 μg/mL ampicillin. Freezer stocks were stored in 60% LB broth, 40% glycerol at −80° C. Freezer stocks were streaked out onto solid LB and incubated for 16 h to produce single colonies before experiments. For biological replicates, single colonies were started in liquid LB and grown for 16 hours prior to experiments. E. coli MG1655 PNA growth experiments were carried out in M9 media (1×M9 minimal media salts solution (MP Biomedicals), 2.0 mM MgSO4, and 0.1 mM CaCl2 in sterile water) with 0.4% glucose.
(§4) PNA growth assay: Biological replicates were diluted 1:10,000 into treatment condition in 384-well plates and measured for 24 h in a Tecan GENios at 562 nm with a bandwidth of 35 nm. Media absorbance blanks were subtracted from data prior to analysis. Normalized optical density (OD) data is shown normalized to the time point where the “no treatment” growth curves reached saturation phase which varied across biological replicates.

MDR E. coli = test: as above; format: cell-based, Escherichia coli; details: for growth inhibition: 10 μM PNA, optical density vs no treatment at 16 hours
Protocol: as §3, §4

ESBL KPN [4] = test: as above; format: cell-based, Klebsiella pneumoniae; details: for monotherapy effect (in words): 10 μM
Protocol: as §3, §4

MDR STm = test: as above; format: cell-based, Salmonella enterica serovar typhimurium; details: MDR STm; 10 μM PNA; optical density vs no treatment at 16 hours
Protocol: as §3, §4

ESBL KPN [5] = test: Potentiation of antibiotics with PNAs (Bliss Independence); format: cell-based, Klebsiella pneumoniae; details: 10 μM PNA + 2 μg/mL tetracycline; for S-value (Bliss Independence model): S>0 indicates synergy
Protocol: (§5) Combinatorial effects were evaluated using the Bliss Independence model where the S parameter defines a deviation from no interaction as is defined as: […]
(§6) Where ODAB is the OD at saturation time in only antibiotic, OD0 is the OD at saturation in no treatment, ODPNA is the OD at saturation in only antisense-PNA at 10 μM, and ODAB, PNA is the OD at saturation in a combination of antibiotic and antisense-PNA. Saturation time was determined as the time when the no treatment control reached its saturation growth phase. S>0 is a deviation towards synergy and S<0 is a deviation towards antagonism.

E. coli MG1655 = test: Growth curves and CFU of lab strain treated with PNA; format: cell-based, Escherichia coli; details: 10 μM
Protocol: FIG. 7. Dose response of various PNA. Optical density of a 1:10,000 dilution of MG6155 from overnight liquid culture, treated with various concentrations of antisense inhibitors was measured for 3 biological replicates with error bars as standard deviations. Normalized growth was measured as the optical density at 22 hours normalized to no treatment. An asterisk (*) indicates a significant difference (p<0.05) as compared to no treatment for each inhibitor.
FIG. 8. Antisense Inhibitors targeting novel pathways can inhibit growth of E. coli. z. (A) Growth curves of E. coli MG1655 from a 1:10,000 dilution from an overnight culture, normalized to time t=0 with 10 μM of respective antisense inhibitor. […] (B) Colony forming units per milliliter of MG1655 E. coli for respective treatment as a function of time. The CFU/mL at t=0 represents the starting culture after a 1:100,000 dilution from overnight culture. […] Significance is measured as p<0.05.
as §3
PNA growth assay: Biological replicates were diluted 1:10,000 into treatment condition in 384-well plates and measured for 24 h in a Tecan GENios at 562 nm with a bandwidth of 35 nm. Media absorbance blanks were subtracted from data prior to analysis. […]

CRE E. coli [6] = format: cell-based, Escherichia coli; details: for S-value (Bliss Independence model): S>0 indicates synergy; for growth with combination therapy (in words): p<0.05
Protocol: as §5, §6

[7] = 10 μM PNA + chloramphenicol 8 μg/mL

Compound: CC1(C)S[C@@H]2[C@H](NC(=O)[C@H](N)c3ccccc3)C(=O)N2[C@H]1C(=O)O [ampicillin]
- antibiotic resistance phenotype ([1]; ampicillin): resistant

Compound: CO/N=C(\C(=O)N[C@@H]1C(=O)N2C(C(=O)O)=C(CSc3nc(=O)c(=O)[nH]n3C)CS[C@H]12)c1csc(N)n1 [ceftriaxone]
- antibiotic resistance phenotype ([1]; ceftriaxone): resistant

Compound: C[C@@H](O)[C@H]1C(=O)N2C(C(=O)O)=C(S[C@@H]3CN[C@H](C(=O)N(C)C)C3)[C@H](C)[C@H]12 [meropenem]
- antibiotic resistance phenotype (NDM-1 KPN): resistant

Compound: N′-KFFKFFKFFK-AEEA-GTCGATAGCAT-C′ [α-recA]
- drop of normalized ratio of SL1344-mCherry to SL1344-Holin ([2]; SL1344-Holin pretreated 45 minutes with 10 μM PNA, HeLa cells, 18 hours, compared to no treatment): 99.6±0.72%
- fate of target strain SL1344-mCherry (in words) ([2]; two out of three biological replicates, across a range of MOI): completely eliminated
- normalized mCherry/Holin (in words) ([2]; with 1 mM IPTG during treatment, p=0.006): Significant decrease
- normalized mCherry/Holin (in words) ([2]; without IPTG (leaky expression), p=0.026): Significant decrease
- effect on Salmonella in broth cultures (in words) (SL1344): lethal

Compound: α-ffh: 12-mer antisense PNA GACAATGTTTGA (SEQ ID NO. 16) targeting ffh, conjugated to (KFF)3K cell penetrating peptide via AEEA-linker (all peptide nucleic acid (PNA); (KFF)3K cell-penetrating peptide attached via AEEA linker)
- growth inhibition (CRE E. coli [3]): 98±1.5%
- growth inhibition (MDR E. coli): 99±0.9%
- monotherapy effect (in words) (ESBL KPN [4]): no or minimal growth inhibition
- growth inhibition (MDR STm): 99±0.8%
- growth with combination therapy (in words) (ESBL KPN [5]): significant growth inhibition compared to each monotherapy
- S-value (Bliss Independence model) (ESBL KPN [5]): positive

Compound: α-gyrB: 12-mer antisense PNA GTTGATGTCGAA (SEQ ID NO. 18) targeting gyrB, conjugated to (KFF)3K cell penetrating peptide via AEEA-linker (all peptide nucleic acid (PNA); (KFF)3K cell-penetrating peptide attached via AEEA linker)
- monotherapy effect (in words) (CRE E. coli [3]; 10 μM): partial therapeutic effect; also recorded: effective in killing
- growth inhibition (CRE E. coli [3]): 71±12%
- monotherapy effect (in words) (MDR E. coli): effective in killing
- growth inhibition (MDR E. coli): 36±14.2%
- monotherapy effect (in words) (ESBL KPN [4]): no or minimal growth inhibition
- growth inhibition (ESBL KPN [4]; 10 μM PNA, optical density vs no treatment at 16 hours): 5±1.4%
- growth inhibition (MDR STm): 74±15.4%
- effect on growth (in words) (E. coli MG1655): effective in killing
- S-value (Bliss Independence model) (CRE E. coli [6]; [7]): 0.27
- growth with combination therapy (in words) (CRE E. coli [6]; [7]): significant growth inhibition with combination therapy compared to each monotherapy
- S-value (Bliss Independence model) (CRE E. coli [6]; 10 μM PNA + gentamicin 4 μg/mL): 0.19
- growth with combination therapy (in words) (CRE E. coli [6]; 10 μM PNA + gentamicin 4 μg/mL): significant growth inhibition with combination therapy compared to each monotherapy
- growth with combination therapy (in words) (ESBL KPN [5]): significant growth inhibition compared to each monotherapy
- S-value (Bliss Independence model) (ESBL KPN [5]): positive
